Results reported in paper PMC11480411, “Mucosal sugars delineate pyrazine vs pyrazinone autoinducer signaling in Klebsiella oxytoca” (Nature Communications, 2024).

Assays:
K. oxytoca = assay: Culture growth (OD600) with sialic acid supplementation; assay type: cell-based, Klebsiella oxytoca; details: M9+CAS with sialic acid, peer review file, not added to the study
Description: as 2 times the recorded value). Importantly, all cultures in this experiment grew. […]
supplemented cultures. All cultures had reached stationary phase after 24 hours. While Neu5Gc cultures did grow slower than Neu5Ac cultures, the term suppression was incorrect. Therefore, we deleted text around Neu5Gc suppression and have changed line 123 to now read: […]
the SI. The following growth analysis was not added to the study.
2. Fig3 describes the role of PLP-enzyme for the production of pyrazines (features 5-9). From
Fig.3a it is clear that features 5 and 7 are different from 6, 8, and 9. Are there functional differences between these 2 groups of compounds in terms of siderophore production? […]
complementation of the pyr mutant with feature 7 could induce siderophore production (Fig4).
What about the features from the other group (6, 8, and 9)?
To address this comment, we performed RNA-seq analysis feeding compound 6 and looked at regulated genes/operons. Similar to compound 7, compound 6 supplementation increased the […]
a table listing specific genes, is now included in the SI. As such, lines 345-348 now read: […]
compound also differentially regulated the transcriptome (201 genes with Padj < 0.05; abs(log2FC) > 1) and enhanced the transcription of genes related to iron acquisition and iron metabolism (Supplemental Information).”
(also on this page, place not known: value ). PLP -enzyme -9). […]

[1] = tested on: leup operon (leupeptin BGC) promoter in K. oxytoca ATCC 8724; assay: GFP-based transcriptional reporter for the leup operon; assay type: cell-based, Klebsiella oxytoca; details: carbohydrate screen, M9 + casamino acid + 0.4% indicated sugar, 30 °C, 24 h
Text: We previously examined a panel of 84 clinical K. oxytoca isolates (including recently renamed Klebsiella michiganensis isolates) for the presence of either the leup operon or npsB, an NRPS of the tilimycin/tilivalline gene cluster. […] While the roles of tilivalline and tilimycin in hemorrhagic colitis are well studied[8],[9], the operon for leupeptin biosynthesis is “silent” in K. oxytoca under typical laboratory culture conditions (i.e., leupeptin production is undetectable). Therefore, our study commenced by exploring growth conditions required to trigger leupeptin biosynthesis in K. oxytoca. To achieve this, we generated a green fluorescent protein (GFP)-based reporter system to monitor leup transcription in K. oxytoca ATCC 8724 (recently renamed as Klebsiella michiganensis (ATCC 8724), Fig. 1a). We utilized λ-red recombineering techniques[38] to replace the first biosynthetic gene (leupA) of the leupeptin BGC with a GFP-spectinomycin resistance cassette. […] Consequently, conditions that elicit transcription of the leupeptin BGC can be monitored by GFP fluorescence intensity.
(§1) 5 mL of the leupeptin reporter strain was cultured aerobically in 10 g/L of LB (Becton Dickinson), yeast extract, GAM (HiMedia Laboratories), horse liver extract (HiMedia Laboratories), malt extract (VWR), meat extract (HiMedia Laboratories), YPD (Dot Scienticifc), brain heart infusion (Becton Dickinson), porcine mucin (Sigma-Aldrich, M1778), clostridial (Becton Dickinson), TSB (VWR), or casamino acid supplemented (5 g/L, VWR) M9 minimal salts (MP Biomedicals) at 30 °C for 24 h at 250 rpm. Cultures were lysed via sonication, centrifuged, and 150 µL of the supernatants were aliquoted into black well clear bottom 96 well plates. GFP fluorescence measurements were performed on a BioTek Synergy H1 plate reader with an excitation wavelength of 488 nm and an emission wavelength of 525 nm. For the carbohydrate screen, the leupeptin reporter strain was cultured in M9 minimal medium (MPbio) supplemented with casamino acid (5 g/L, VWR) and 0.4% indicated sugar aerobically at 30 °C for 24 h at 250 rpm.

[2] = tested on: wildtype K. oxytoca ATCC 8724; assay: Leupeptin detection in culture extracts by HPLC-QTOF-MS; assay type: cell-based, Klebsiella oxytoca; details: added to cultivation medium
Description: as §1
For MS-based determination of leupeptin activation, wildtype K. oxytoca ATCC 8724 was cultured in 5 mL of M9 minimal medium supplemented with 5 g/L casamino acids and 0.4% Neu5Ac. […] To measure the area under the curves for specific molecular features, the exact monoprotonated [M + H]^+ mass was calculated and extracted ion chromatographs (EICs) with a 10-ppm error were constructed. […]

S. enterica Typhimurium = tested on: S. enterica Typhimurium; set-up: method as in PMID 36929450; details: 100 µM (supra-physiological); cited from earlier work

SMILES	culture growth (K. oxytoca)	GFP fluorescence, GFP Strain + Media ([1]; leup GFP reporter strain) [RFU]	GFP fluorescence, WT + Media ([1]; wildtype K. oxytoca without reporter (background)) [RFU]	induction of leupeptin (1) production [2]	effect on iron acquisition pathways (S. enterica Typhimurium)
CC(=O)N[C@H]1[C@H]([C@H](O)[C@H](O)CO)OC(O)(C(=O)O)C[C@@H]1O (stereo partly shown) [Neu5Ac, N-acetylneuraminic acid]	grew fastest	85763	8846	robust detection of leupeptin	
Cc1c[nH]c(=O)c(C)n1 [DPO, dimethylpyrazine-2-ol]					downregulated iron acquisition pathways
O=C(CO)N[C@H]1[C@H]([C@H](O)[C@H](O)CO)OC(O)(C(=O)O)C[C@@H]1O (stereo partly shown) [Neu5Gc, N-glycolneuraminic acid]	grew about as fast as non-			unable to induce the production of 1	
